Measurements published in patent publication US20140350119A1, “OPHTHALMIC COMPOSITION COMPRISING GERANYLGERANYLACETONE” (ROHTO PHARMACEUTICAL CO., LTD., priority 2012, published 2014).

System: rat models with glaucoma induced by NMDA
Assay: Protective effect for retinal ganglion cells against nerve damage by NMDA (thickness of inner plexiform layer)
Assay type: in vivo, Sprague-Dawley (SD) rats
From the text: In recent years the glutamate analogue NMDA (N-methyl-D-aspartate) has been widely reported to be one of causative agents of neurodegenerative diseases including Alzheimer's disease. In the ophthalmic field, NMDA is considered to be involved in optic nerve damage in glaucoma (Brain Research Bulletin, 81 (2010) 349-358). Accordingly, in this experiment rat models with glaucoma induced by NMDA were used to evaluate the neuroprotective effect of GGA.
To Sprague-Dawley (SD) rats, the all-trans form, the 5Z-mono-cis form and teprenone were separately pre-administered by oral administration (Test Example 1), intravitreal administration (Test Example 2) or ocular instillation administration (Test Example 3) and 5 μL of NMDA was administered into the vitreous body to induce nerve damage. For Test Example 2, a marketed therapeutic eye drop for glaucoma, AIPHAGAN (trade name), was intravitreally administered as a positive control once a day for five days. For each of Test Examples, a base not containing GGA or AIPHAGAN was administered as a control in the same manner as described above.
The dosage and regimen of Test Examples 1 to 3 are shown in Table 1 and the constitution of the base used in each tests are shown in Table 2.
Three days after administration of NMDA, the eyeballs were harvested, fixed with half Karnovsky's fixative for 24 hours, embedded in paraffin, thin sectioned and stained with hematoxylin-eosin (HE) to prepare histopathological sections. The histological sections were observed under an optical microscope and the thickness (μm) of the inner plexiform layer (IPL) of the retina was measured. From the thickness of the inner plexiform layer (IPL) of the retina, the neuroprotective effects of the test preparations were evaluated.

## CC(=O)CC/C=C(\C)CC/C=C(\C)CC/C=C(\C)CCC=C(C)C [all-trans form, (5E,9E,13E)-6,10,14,18-tetramethyl-5,9,13,17-nonadecatetrae n-2-one]
Test Example 1: oral, 800 mg/kg, 2 days, once per day, NMDA 4 mM, FIG. 6
  Neuroprotective effect against nerve damage by NMDA compared with the base (IPL thickness): significant neuroprotective effects
Test Example 2: intravitreal, 0.05% w/v, 5 days, once per day, NMDA 40 mM, FIG. 7
  Neuroprotective effect against nerve damage by NMDA compared with the base (IPL thickness): significant neuroprotective effects
Test Example 2: intravitreal, 0.05% w/v, 5 days, NMDA 40 mM, FIG. 7
  Neuroprotective effect compared with AIPHAGAN Ophthalmic Solution 0.1%: significantly superior neuroprotective effect
Test Example 3: ocular instillation, 1% w/v, 5 days, 5 times per day, NMDA 4 mM, FIG. 9
  Neuroprotective effect against nerve damage by NMDA compared with the base (IPL thickness): significant neuroprotective effect
